Assay [1] relates to HAP1 MTAP-intact cell line. The assay can be described thus: SDMA in-cell western assay, HAP1 MTAP-intact. The format is cell-based. As to conditions: Homo sapiens, HAP1, SDMA in-cell western, HAP1 MTAP-intact; read-out: MTAP HAP1 intact IC50. The procedure, abridged:
(§1)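 Compounds were tested in HAP1 cells differing only in MTAP status (endogenous expression versus null). Cellular SDMA levels were then measured by in-cell western, giving an IC50 in each background.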

In assay [2] the test system is HAP1 MTAP-deleted cell line. In words: Viability assay, MTAP-deleted cell line. The assay is classed as cell-based. Particulars: Homo sapiens, HAP1, viability assay, HAP1 MTAP-deleted; read-out: HAP1 MTAP deleted viability. From the text:
Table 1 additionally indicates IC50 values in a viability assay for the MTAP-deleted cell line (column 10), indicating the effect of treatment with compound on cell survival.

Assay [3] has as its target T1, PRMT5 (Homo sapiens, UniProt O14744).
T1 construct: purchased Viva (custom protein)
The assay can be described thus: PRMT5 biochemical IC50 assay with no cofactor. Particulars: PRMT5, no cofactor; read-out: No Cofactor/rel IC50. From the text: Table 1 indicates IC50 values (μM) against PRMT5 for exemplary compounds in the presence of SAM as cofactor, with no cofactor, and with MTA as cofactor, respectively (columns 4-6). […] Ki values can be calculated from the IC50 values as described in the Examples section. As detailed in the Examples section, for the assay performed in the presence of SAM, IC50=Ki×1.5 (Ki=IC50/1.5).

In assay [4] the test system is HAP1 MTAP-deleted cell line. The assay can be described thus: SDMA in-cell western assay, HAP1 MTAP-deleted. The format is cell-based. Particulars: for pIC50: Homo sapiens, HAP1, SDMA in-cell western, HAP1 MTAP-deleted, read-out: HAP1 MTAP deleted IC50; for MTAP intact/deleted ratio: IC50 ratio HAP1 MTAP-intact / HAP1 MTAP-deleted, SDMA in-cell western. The procedure, abridged: as §1

Assay [5] deals with T1, PRMT5. In words: PRMT5 biochemical IC50 assay with SAM as cofactor. As to conditions: PRMT5, SAM as cofactor; read-out: SAM IC50.
Assay [6] deals with T1, PRMT5. In words: PRMT5 biochemical IC50 assay with MTA as cofactor. Particulars: PRMT5, MTA as cofactor; read-out: MTA IC50.

pIC50: −log10 of the molar value.

T1 sequence (O14744 whole entry): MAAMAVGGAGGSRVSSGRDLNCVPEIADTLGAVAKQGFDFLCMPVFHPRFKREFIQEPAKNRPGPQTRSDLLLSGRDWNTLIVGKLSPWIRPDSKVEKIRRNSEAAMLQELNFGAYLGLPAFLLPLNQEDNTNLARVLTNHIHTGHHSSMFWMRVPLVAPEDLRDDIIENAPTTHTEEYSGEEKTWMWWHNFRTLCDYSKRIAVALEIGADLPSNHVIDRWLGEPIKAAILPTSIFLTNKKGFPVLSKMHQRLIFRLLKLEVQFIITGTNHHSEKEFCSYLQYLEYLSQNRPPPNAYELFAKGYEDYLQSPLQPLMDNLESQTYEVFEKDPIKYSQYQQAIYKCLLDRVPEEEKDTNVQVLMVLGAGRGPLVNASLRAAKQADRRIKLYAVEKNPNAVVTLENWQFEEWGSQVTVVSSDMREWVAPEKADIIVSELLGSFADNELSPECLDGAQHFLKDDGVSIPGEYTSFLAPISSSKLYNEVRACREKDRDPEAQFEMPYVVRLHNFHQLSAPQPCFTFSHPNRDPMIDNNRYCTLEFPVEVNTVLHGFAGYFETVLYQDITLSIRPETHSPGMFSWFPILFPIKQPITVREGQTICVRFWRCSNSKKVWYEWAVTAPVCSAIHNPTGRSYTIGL
T1 sequence (Q9BQA1 whole entry partner): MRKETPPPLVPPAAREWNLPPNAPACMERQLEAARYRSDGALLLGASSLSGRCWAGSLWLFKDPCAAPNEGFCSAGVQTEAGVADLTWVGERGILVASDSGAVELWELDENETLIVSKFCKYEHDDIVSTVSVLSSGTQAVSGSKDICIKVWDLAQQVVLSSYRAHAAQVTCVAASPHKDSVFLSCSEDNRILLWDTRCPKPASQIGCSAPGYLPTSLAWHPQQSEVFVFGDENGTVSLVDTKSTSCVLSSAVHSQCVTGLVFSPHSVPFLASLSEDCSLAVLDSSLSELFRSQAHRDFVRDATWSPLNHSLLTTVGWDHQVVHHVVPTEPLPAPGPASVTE

In the case of `Cc1ncc(NC(=O)C(=O)N2C[C@@H](C)CC[C@@H]2c2ccc3c(c2)CCC(=O)N3)cc1Cl` (single isomer, unassigned) [Compound 727], the pIC50 in assay [1] is under 6.00; in assay [2], under 5.00; at PRMT5 [3], under 6.30; in assay [4], under 6.00; on PRMT5 [5], under 6.30; on PRMT5 [6], under 6.30. In addition, in assay [4], the MTAP intact/deleted ratio result is “C (an IC50 ratio of less than 3 fold)”.

Regarding `CCc1cc(NC(=O)C(=O)N2C[C@H](C)C(F)(F)C[C@H]2c2ccc(F)c(F)c2)cnc1N` (single isomer, unassigned) [Compound 728], the pIC50 in assay [1] is under 6.00; in assay [2], under 5.00; at PRMT5 [3], under 6.30; in assay [4], under 6.00; on PRMT5 [5] it was under 6.30; on PRMT5 [6] it was under 6.30. In addition, the MTAP intact/deleted ratio entry in assay [4] is on record as “C (an IC50 ratio of less than 3 fold)”.

For `CCc1cc(NC(=O)C(=O)N2C[C@@H](C)CC[C@@H]2c2ccc3c(c2)CCC(=O)N3)cnc1N` (single isomer, unassigned) [Compound 729], the pIC50 in assay [1] was under 6.00; in assay [2], 5.00 to 6.00; on PRMT5 [3], under 6.30; in assay [4], 6.00 to 7.00; on PRMT5 [5], under 6.30; at PRMT5 [6], under 6.30. In assay [4], the MTAP intact/deleted ratio result is reported as “A (an IC50 ratio greater than or equal to 10 fold)”.

On to `Cc1nc2cc([C@@H]3CC[C@@H](C)CN3C(=O)C(=O)Nc3cnc(N)c(C)c3)ccc2s1` (single isomer, unassigned) [Compound 730], for which the pIC50 in assay [1] was under 6.00; in assay [2], under 5.00; on PRMT5 [3] it was under 6.30; in assay [4] it was under 6.00; at PRMT5 [5], under 6.30; on PRMT5 [6], under 6.30. Besides, the MTAP intact/deleted ratio entry in assay [4] is “C (an IC50 ratio of less than 3 fold)”.

Turning to `C[C@H]1CN(C(=O)C(=O)Nc2cncc(C(N)=O)c2)[C@H](c2ccc(F)cc2)CC1(F)F` (single isomer, unassigned) [Compound 731], the pIC50 in assay [1] was under 6.00; in assay [2], 5.00 to 6.00; on PRMT5 [3], 6.30 to 7.30; in assay [4], over 7.00; on PRMT5 [5], 6.30 to 7.30; on PRMT5 [6], over 7.30. In assay [4], the MTAP intact/deleted ratio entry is on record as “A (an IC50 ratio greater than or equal to 10 fold)”.

Take `CC(=O)Nc1ccc([C@@H]2CC[C@@H](C)CN2C(=O)C(=O)Nc2cnc(N)c(C)c2)s1` (single isomer, unassigned) [Compound 732]: the pIC50 in assay [1] was under 6.00; in assay [2] it was 5.00 to 6.00; on PRMT5 [3], 6.30 to 7.30; in assay [4], 6.00 to 7.00; on PRMT5 [5], 6.30 to 7.30; at PRMT5 [6], over 7.30. For the same compound, the MTAP intact/deleted ratio entry in assay [4] was “A (an IC50 ratio greater than or equal to 10 fold)”.

As for `Cc1cc(NC(=O)C(=O)N2C[C@@H](C)CC[C@@H]2c2ccc(C(N)=O)s2)cnc1N` (single isomer, unassigned) [Compound 733], the pIC50 is 6.00 to 7.00 in assay [1]; over 6.00 in assay [2]; over 7.30 on PRMT5 [3]; over 7.00 in assay [4]; 6.30 to 7.30 at PRMT5 [5]; over 7.30 at PRMT5 [6]. In addition, in assay [4], the MTAP intact/deleted ratio result is recorded as “A (an IC50 ratio greater than or equal to 10 fold)”.

On to `Cc1cc(NC(=O)C(=O)N2C[C@@H](C)CC[C@@H]2c2cc(F)cc(F)c2)cnc1N` (single isomer, unassigned) [Compound 734, N-(6-amino-5-methylpyridin-3-yl)-2-(2-(3,5-difluorophenyl)-5-methylpiperidin-1-yl)-2-oxoacetamide], for which the pIC50 in assay [1] was under 6.00; in assay [2], 5.00 to 6.00; at PRMT5 [3] it was over 7.30; in assay [4] it was over 7.00; on PRMT5 [5] it was 6.30 to 7.30; at PRMT5 [6], over 7.30. Besides, the MTAP intact/deleted ratio entry in assay [4] is on record as “A (an IC50 ratio greater than or equal to 10 fold)”.

`Cc1cc(NC(=O)C(=O)N2C[C@H](C)C(F)(F)C[C@H]2c2ccccc2)cnc1N` (single isomer, unassigned) [Compound 735]: the pIC50 was 6.00 to 7.00 in assay [1]; over 6.00 in assay [2]; over 7.30 at PRMT5 [3]; over 7.00 in assay [4]; over 7.30 on PRMT5 [5]; over 7.30 at PRMT5 [6]. Besides, in assay [4], the MTAP intact/deleted ratio entry was “A (an IC50 ratio greater than or equal to 10 fold)”.

With `CCc1cc(NC(=O)C(=O)N2C[C@H](C)CC[C@H]2c2ccccc2)cnc1N` (single isomer, unassigned) [Compound 736], the pIC50 in assay [1] is under 6.00; in assay [2], over 6.00; at PRMT5 [3], over 7.30; in assay [4], over 7.00; on PRMT5 [5], 6.30 to 7.30; at PRMT5 [6], over 7.30. The MTAP intact/deleted ratio entry in assay [4] is on record as “A (an IC50 ratio greater than or equal to 10 fold)”.

As for `COc1ncc(NC(=O)C(=O)N2C[C@@H](C)CC[C@@H]2c2cc(F)c(F)c(F)c2)cc1C(N)=O` (single isomer, unassigned) [Compound 739], the pIC50 in assay [1] is under 6.00; in assay [2], under 5.00; on PRMT5 [3] it was under 6.30; in assay [4], under 6.00; at PRMT5 [5] it was under 6.30; on PRMT5 [6], under 6.30. Besides, the MTAP intact/deleted ratio result in assay [4] is on record as “B (an IC50 ratio greater than or equal to 3 fold but lower than 10 fold)”.

On to `C[C@@H]1CC[C@@H](c2ccc3c(c2)CNC3=O)N(C(=O)C(=O)Nc2cncc(C(N)=O)c2)C1` (single isomer, unassigned) [Compound 740, 5-(2-(5-methyl-2-(1-oxoisoindolin-5-yl)piperidin-1-yl)-2-oxoacetamido)nicotinamide], for which the pIC50 is under 6.00 in assay [1]; 5.00 to 6.00 in assay [2]; 6.30 to 7.30 at PRMT5 [3]; under 6.00 in assay [4]; 6.30 to 7.30 at PRMT5 [5]; over 7.30 on PRMT5 [6]. Moreover, the MTAP intact/deleted ratio result in assay [4] is recorded as “B (an IC50 ratio greater than or equal to 3 fold but lower than 10 fold)”.

Consider `C[C@H]1CC[C@H](c2ccc3c(c2)CNC3=O)N(C(=O)C(=O)Nc2cncc(C(N)=O)c2)C1` (single isomer, unassigned) [Compound 741, 5-(2-(5-methyl-2-(1-oxoisoindolin-5-yl)piperidin-1-yl)-2-oxoacetamido)nicotinamide], for which the pIC50 was under 6.00 in assay [1]; under 5.00 in assay [2]; under 6.30 on PRMT5 [3]; under 6.00 in assay [4]; under 6.30 at PRMT5 [5]; under 6.30 on PRMT5 [6]. Further, the MTAP intact/deleted ratio entry in assay [4] was “C (an IC50 ratio of less than 3 fold)”.

Turning to `COc1ncc(NC(=O)C(=O)N2C[C@H](C)CC[C@H]2c2cc(F)c(F)c(F)c2)cc1C(N)=O` (single isomer, unassigned) [Compound 742], the pIC50 in assay [1] was under 6.00; in assay [2], 5.00 to 6.00; at PRMT5 [3] it was 6.30 to 7.30; in assay [4], 6.00 to 7.00; on PRMT5 [5], 6.30 to 7.30; at PRMT5 [6] it was over 7.30. The MTAP intact/deleted ratio result in assay [4] is on record as “A (an IC50 ratio greater than or equal to 10 fold)”.

The values are drawn from patent US11999727B2 (Tango Therapeutics, Inc., priority 2020, dated 2024).
